This is an account of results in patent US7973166B2, “N-(2-aminophenyl)-4-[N-(pyridine-3-yl)-methoxycarbonyl-aminomethyl]-benzamide (MS-275) polymorph B” (Bayer Schering Pharma AG, priority 2008, dated 2011).

Series [1] can be described thus: Thermodynamic stability of the solid state forms. It is filed as physicochemical. The conditions noted are these: at least in the relevant temperature range below 600 / below 60° C.
For series [2], the system named is DU-145 Human Prostate Carcinoma. The experiment in a line: DU-145 human prostate carcinoma model in nude mice. It counts as in vivo. Conditions: orally 10, 20 or 30 mg/kg in 30% HPβCD, tumor growth determined 27 to 56 days after tumor transplantation, versus vehicle control. Here is the method: The active compound was applied in 30% HPβCD. As control, a vehicle of DMSO/ethanol 1.1 in 0.085% Myrj/NaCl/30% HPβCD was used. The tumor growth was determined after 27 to 56 days after tumor transplantation.

On to `Nc1ccccc1NC(=O)c1ccc(CNC(=O)OCc2cccnc2)cc1` [polymorph A, N-(2-aminophenyl)-4-[N-(pyridine-3-yl)methoxycarbonylamino-methyl]benzamide, reference compound], for which, in series [1], the “thermodynamic stability of the polymorph” value is listed as “not the thermodynamically stable polymorph”.

Turning to `Nc1ccccc1NC(=O)c1ccc(CNC(=O)OCc2cccnc2)cc1` [polymorph B, N-(2-aminophenyl)-4-[N-(pyridine-3-yl)methoxy-carbonylamino-methyl]benzamide], the “thermodynamic stability of the polymorph” value in series [1] is reported as “thermodynamically stable polymorph”. For the same compound, the tumor growth result in series [2] is listed as “clear inhibition”.
